Values quoted from earlier work, collected in patent US20200171025A1, “PHARMACEUTICAL COMPOSITION COMPRISING BREXPIPRAZOLE AND PROCESS FOR PREPARATION THEREOF” (priority 2018, published 2020).

Conditions: as per BCS

SMILES: O=c1ccc2ccc(OCCCCN3CCN(c4cccc5sccc45)CC3)cc2[nH]1 [Brexpiprazole, 7-{4-[4-(1-Benzothiophen-4-yl)piperazin-1-yl]butoxy}quinolin-2(1H)-one]
- Aqueous solubility: low aqueous solubility
- Permeability: high permeability
